In patent publication US9408856B2, “Topical steroidal formulations” (Temple University—Of The Commonwealth System of Higher …, priority 2008, dated 2016):
“And” between values parts separate entries of the source, which are not always exact repeats. Equal values may be shown once.

Tested on: TPA-stimulated epidermal DNA synthesis in mouse epidermis
Test: TPA-induced epidermal DNA synthesis in mouse epidermis, oral fluasterone
Type: in vivo, CD-1 mice
Method: In dose-response experiments the anti-hyperplastic efficacy of fluasterone in TPA-treated mouse epidermis to determine bioavailability following different routes of administration was measured. Mice were treated with a single dose of fluasterone (either orally, subcutaneously, or transdermally) followed by a single application of TPA to the shaved back one hour latter. In case of transdermal administration, fluasterone is applied in a topical formulation to the shaved abdomen to allow for systemic absorption to the back of the animal. Twenty hours after TPA application, the mice are injected with 60 μCi of [3H] thymidine, sacrificed 20 minutes later, and a 2×2 cm2 of skin from the shaved back is excised and processed for the determination of the amount of [3H] thymidine incorporated per unit of epidermal DNA. (Hennings et. al., Cancer Res. 28:543-552, 1968).
Fluasterone suspensions were prepared using sesame oil as vehicle. Micronized fluasterone was obtained from Pharmaceutics International, Inc. Five suspensions were prepared—100 mg/kg (13 mg/mL), 200 mg/kg (26.5 mg/mL), 400 mg/kg (52.4 mg/mL), 800 mg/kg (105.5 mg/mL), and 1200 mg/kg (158.3 mg/mL). The fluasterone for each suspension was weighed, placed into a plastic vial, and the required volume of sesame oil was added to the vial. The fluasterone was suspended in the sesame oil with the use of a Tekmar Tissumizer. Magnetic stirrer bars were added to the various suspensions which were stirred on a magnetic stirrer prior to treatment. Control and TPA groups received sesame oil alone.
Female CD-1 mice were obtained from Charles River Laboratories, Wilmington, Mass. at 35-37 days of age.
The mice were housed three per cage in plastic shoebox cages on Alphacel bedding with 12 hours of alternating light and dark in the CAF Animal Facility. The mice had ad libitum access to Purina 5.015 chow and acidified tap water (pH≦2.6). The mice were shaved, weighed and distributed into groups of three. • Control The mice were treated orally with 0.2 mL of sesame oil. One hour after treatment with sesame oil, the mice were treated topically with 0.2 mL of acetone. • TPA The mice were treated orally with 0.2 mL of sesame oil. […] One hour after treatment with fluasterone, the mice were treated topically with 2 μg of TPA in 0.2 mL of acetone.
The mice were sacrificed 20 hours after treatment by an overdose of CO2. Twenty minutes prior to sacrifice, the mice were injected with 60 μCi of [^3H]thymidine (Amersham). The mice were treated with a depilatory to remove any residual hair. A 2×2 cm^2 piece of skin was excised, placed in ice water for 30 seconds, then in 55° C. water for 30 seconds, then in ice water again for 30 seconds. The epidermis was s raped off using a scalpel and the scrapings were placed into ice cold 0.4N TCA. The scrapings were homogenized using a Tekmar Tissumizer (80% power for 30 seconds). The homogenates were centrifuged for 20 minutes at 3,000×g. The precipitates were washed 3× with 0.2N TCA. The TCA was removed and the precipitates were stored at −20° C. overnight. The next day, the precipitates were washed 2× with absolute ethanol. The DNA in each sample was hydrolyzed with 0.5N TCA for 30 minutes at 90°. The tubes were centrifuged for 20 minutes at 3000×g. A 0.2 mL aliquot of each hydrolysate was counted in a LKB Rackbeta scintillation counter using Scintiverse II BD as the counting medium. DNA content was determined by the Burton diphenylamine assay.
102.7 mg of Micronized fluasterone I was weighed using a Mettler AE-50 balance, transferred to a glass scintillation vial, and homogenized in 6.0 mL of carboxymethylcellulose-Tween 80 using a Tekmar Tissumizer (200 mg/kg micronized I suspension, 200 MI). 88.4 mg of micronized fluasterone II was then weighed, transferred to a glass scintillation vial, and homogenized in 5.2 mL of CMC-Tween using a Tekmar Tissumizer (200 mg/kg micronized II suspension, 200 MII).

[1] = Table 4, 100 mg/kg p.o. micronized in sesame oil 1 h before 2 μg TPA, 20 h, group mean
[2] = Table 4, 200 mg/kg p.o. micronized in sesame oil 1 h before 2 μg TPA, 20 h, group mean
[3] = Table 4, 400 mg/kg p.o. micronized in sesame oil 1 h before 2 μg TPA, 20 h, group mean
[4] = Table 4, 800 mg/kg p.o. micronized in sesame oil 1 h before 2 μg TPA, 20 h, group mean
[5] = Table 4, 1200 mg/kg p.o. micronized in sesame oil 1 h before 2 μg TPA, 20 h, group mean
[6] = Table 18, TPA 2 μg topical after CMC-Tween p.o. only, 20 h, single mice

SMILES	cpm/μg DNA [1]	μg DNA [1]	cpm/μg DNA [2]	μg DNA [2]	cpm/μg DNA [3]	μg DNA [3]	cpm/μg DNA [4]	μg DNA [4]	cpm/μg DNA [5]	μg DNA [5]	lowest effective oral dose which abolishes TPA-stimulated epidermal hyperplasia ([3H]thymidine incorporation and epidermal DNA content) (mouse skin, single oral dose)	μg DNA (Table 4, TPA 2 μg topical, sesame oil p.o. only, 20 h, 2×2 cm2 skin, group mean)	cpm/μg DNA (Table 4, TPA 2 μg topical, sesame oil p.o. only, 20 h, group mean)	corrected cpm [6]	μg DNA/0.2 ml [6]	cpm/μg DNA (Table 18, TPA 2 μg topical after CMC-Tween p.o. only, 20 h, single mice and group mean)	cpm/μg DNA (Table 18, TPA 2 μg topical after CMC-Tween p.o. only, 20 h, single mice and group mean, group mean)	μg DNA (Table 20, TPA 2 μg topical after sesame oil and suspension vehicle p.o. only, 20 h, group mean)
C[C@]12CCCCC1=CC[C@@H]1[C@@H]2CC[C@]2(C)C(=O)[C@H](F)C[C@@H]12 [Fluasterone, 16α-fluoro-5-androsten-17-one]	539.8 ± 75.9 cpm/μg DNA	15.5 ± 3.0 µg	185.0 ± 38.2 cpm/μg DNA	6.0 ± 1.9 µg	208.8 ± 144.2 cpm/μg DNA	6.6 ± 2.6 µg	634.3 ± 151.6 cpm/μg DNA	6.2 ± 1.0 µg	850.0 ± 256.0 cpm/μg DNA	6.3 ± 1.5 µg	200 mg/kg	–	–	–	–	–	–	–
CCCCCCCCCCCCCC(=O)O[C@@H]1[C@@H](C)[C@@]2(O)[C@@H](C=C(CO)C[C@]3(O)C(=O)C(C)=C[C@@H]23)[C@@H]2C(C)(C)[C@]12OC(C)=O [TPA, 12-O-tetradecanoylphorbol-13-acetate, reference compound]	–	–	–	–	–	–	–	–	–	–	–	14.1 ± 1.3 µg	641.5 ± 115.2 cpm/μg DNA	9,877 cpm and 8,235 cpm and 8,699 cpm	28.0 μg DNA/0.2 ml and 31.9 μg DNA/0.2 ml and 28.2 μg DNA/0.2 ml	351.6 cpm/μg DNA and 258.6 cpm/μg DNA and 308.5 cpm/μg DNA	306.1 ± 46.8 cpm/μg DNA	13.9 ± 0.3 µg
